The results in this text go back to patent US10526337B2, “Heteroaryl derivative or pharmaceutically acceptable salt thereof, preparation method therefor, and pharmaceutical composition for preventing or treating diseases associated with PI3 kinases, containing same as active ingredient” (KOREA RESEARCH INSTITUTE OF CHEMICAL TECHNOLOGY, priority 2015, dated 2020).

The structures appear in SMILES notation.

The IC50 is the concentration needed to halve the response being measured. Low readings indicate greater potency, high ones weaker potency.

Settings in all cases: ATP=10 uM, sample concentration=100 nM
The target in test [1] is T1, PI3 Kinase (p110δ/p85α) (h) (Homo sapiens, UniProt O00329).
T1 construct: endogenous in cells; host or cells: Raji
T1 sequence (O00329 whole entry): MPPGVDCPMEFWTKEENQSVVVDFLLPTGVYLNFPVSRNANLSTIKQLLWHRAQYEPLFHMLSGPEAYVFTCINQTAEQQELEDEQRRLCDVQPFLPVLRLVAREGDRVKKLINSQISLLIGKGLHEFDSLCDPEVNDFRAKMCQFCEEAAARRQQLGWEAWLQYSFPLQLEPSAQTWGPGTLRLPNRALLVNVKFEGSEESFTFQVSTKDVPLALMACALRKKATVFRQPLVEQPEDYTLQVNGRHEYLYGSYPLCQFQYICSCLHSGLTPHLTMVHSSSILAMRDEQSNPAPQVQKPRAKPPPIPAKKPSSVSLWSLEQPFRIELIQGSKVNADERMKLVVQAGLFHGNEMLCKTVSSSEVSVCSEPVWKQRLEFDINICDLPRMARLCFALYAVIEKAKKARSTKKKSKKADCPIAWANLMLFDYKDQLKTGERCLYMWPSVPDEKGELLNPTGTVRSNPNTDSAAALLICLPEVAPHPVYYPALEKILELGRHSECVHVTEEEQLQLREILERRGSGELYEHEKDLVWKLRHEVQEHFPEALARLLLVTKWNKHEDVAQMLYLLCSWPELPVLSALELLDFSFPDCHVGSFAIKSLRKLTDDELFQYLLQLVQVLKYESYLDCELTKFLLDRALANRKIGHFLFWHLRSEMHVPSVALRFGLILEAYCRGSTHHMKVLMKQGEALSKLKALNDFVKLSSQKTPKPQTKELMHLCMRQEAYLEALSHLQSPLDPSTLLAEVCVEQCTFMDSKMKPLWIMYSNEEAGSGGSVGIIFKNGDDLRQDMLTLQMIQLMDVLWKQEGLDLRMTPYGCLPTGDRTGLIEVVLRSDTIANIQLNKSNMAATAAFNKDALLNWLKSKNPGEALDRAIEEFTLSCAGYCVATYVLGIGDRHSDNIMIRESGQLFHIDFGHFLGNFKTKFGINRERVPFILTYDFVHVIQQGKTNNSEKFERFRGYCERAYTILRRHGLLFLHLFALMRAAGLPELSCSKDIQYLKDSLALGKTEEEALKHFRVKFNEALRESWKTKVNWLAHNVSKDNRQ
T1 sequence (P27986 whole entry partner): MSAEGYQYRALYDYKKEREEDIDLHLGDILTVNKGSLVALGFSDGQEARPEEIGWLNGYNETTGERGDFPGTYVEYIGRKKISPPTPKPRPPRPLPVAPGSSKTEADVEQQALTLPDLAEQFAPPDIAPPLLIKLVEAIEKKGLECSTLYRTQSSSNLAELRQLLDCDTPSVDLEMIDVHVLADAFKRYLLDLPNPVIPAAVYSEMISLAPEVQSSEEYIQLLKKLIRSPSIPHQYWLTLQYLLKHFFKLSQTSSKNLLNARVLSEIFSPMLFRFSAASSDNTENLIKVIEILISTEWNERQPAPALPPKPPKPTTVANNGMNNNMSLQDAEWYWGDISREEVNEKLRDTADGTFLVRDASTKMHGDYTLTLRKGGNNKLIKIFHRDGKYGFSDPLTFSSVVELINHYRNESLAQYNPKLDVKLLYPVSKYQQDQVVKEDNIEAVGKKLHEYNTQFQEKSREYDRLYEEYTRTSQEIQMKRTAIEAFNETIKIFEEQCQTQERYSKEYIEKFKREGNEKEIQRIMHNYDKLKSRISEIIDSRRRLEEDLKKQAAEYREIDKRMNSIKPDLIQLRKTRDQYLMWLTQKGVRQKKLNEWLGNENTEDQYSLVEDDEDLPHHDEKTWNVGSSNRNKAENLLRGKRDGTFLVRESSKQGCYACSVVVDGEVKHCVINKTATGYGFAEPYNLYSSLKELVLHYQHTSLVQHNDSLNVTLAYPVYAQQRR
Briefly: Inhibition of phosphatidylinositol 3-kinase delta (PI3K δ), pAkt Western blotting in IgM-stimulated Raji cells. The test is classed as cell-based. A digest of the protocol:
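Raji cells were treated with compound for 1.5 h, then stimulated with 0.25 μg/mL IgM for 30 min to activate PI3Kδ. Lysates were Western blotted for pAkt (Ser473 or Thr308) with ECL detection. Conditions stated: ATP=10 uM, sample concentration=100 nM.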
For orientation: A western blot detects proteins with antibodies after separation by electrophoresis.

In the next test the target is T2, PI3 Kinase (p120γ) (h) (Homo sapiens, UniProt P48736).
T2 construct: endogenous in cells; host or cells: RAW264.7
T2 sequence (P48736 whole entry): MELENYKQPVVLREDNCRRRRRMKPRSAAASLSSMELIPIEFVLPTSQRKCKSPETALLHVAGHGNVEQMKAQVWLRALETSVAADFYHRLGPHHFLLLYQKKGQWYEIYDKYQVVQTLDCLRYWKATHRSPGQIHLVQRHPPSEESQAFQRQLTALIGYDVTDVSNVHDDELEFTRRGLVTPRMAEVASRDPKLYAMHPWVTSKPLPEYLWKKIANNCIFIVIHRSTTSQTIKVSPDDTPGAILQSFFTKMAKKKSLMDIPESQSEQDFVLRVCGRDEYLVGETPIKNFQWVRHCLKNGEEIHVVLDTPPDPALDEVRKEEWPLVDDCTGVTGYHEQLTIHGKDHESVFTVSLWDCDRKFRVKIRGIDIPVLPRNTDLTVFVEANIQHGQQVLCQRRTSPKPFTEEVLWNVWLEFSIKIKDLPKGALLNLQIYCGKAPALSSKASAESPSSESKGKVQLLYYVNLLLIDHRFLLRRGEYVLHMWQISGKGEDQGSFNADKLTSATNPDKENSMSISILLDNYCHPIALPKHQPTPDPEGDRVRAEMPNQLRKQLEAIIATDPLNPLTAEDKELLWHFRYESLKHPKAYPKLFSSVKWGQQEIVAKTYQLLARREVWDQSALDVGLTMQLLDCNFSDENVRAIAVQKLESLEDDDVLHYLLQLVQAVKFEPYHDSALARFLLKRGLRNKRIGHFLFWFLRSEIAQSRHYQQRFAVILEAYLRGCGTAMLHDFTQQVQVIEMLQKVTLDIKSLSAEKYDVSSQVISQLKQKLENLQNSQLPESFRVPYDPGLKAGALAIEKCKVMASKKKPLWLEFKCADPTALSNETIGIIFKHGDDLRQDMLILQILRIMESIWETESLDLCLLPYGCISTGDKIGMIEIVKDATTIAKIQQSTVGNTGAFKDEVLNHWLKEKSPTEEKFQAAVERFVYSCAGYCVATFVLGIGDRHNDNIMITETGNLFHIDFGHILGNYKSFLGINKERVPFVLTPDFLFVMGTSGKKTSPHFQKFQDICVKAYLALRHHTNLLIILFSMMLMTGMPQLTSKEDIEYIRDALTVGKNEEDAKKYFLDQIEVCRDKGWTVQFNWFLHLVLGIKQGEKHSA
Nature of the test: Inhibition of phosphatidylinositol 3-kinase gamma (PI3K γ), pAkt Western blotting in C5a-stimulated RAW264.7 macrophages. The test is classed as cell-based, mouse. In short, it runs like this: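 Enzyme: PI3Kγ activity measured at ATP=10 uM with compound at 100 nM. Cellular: RAW264.7 macrophages treated with compound 1.5 h, then stimulated with 10 ng/mL C5a for 5 min; lysates (10 μg protein) probed by Western blot for pAkt (Ser473 or Thr308), ECL detection.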

The target of test [2] is T3, PI3 Kinase (p110β/p86α) (h) (Homo sapiens, UniProt P42338).
T3 construct: endogenous in cells; host or cells: PC3
T3 sequence (P42338 whole entry): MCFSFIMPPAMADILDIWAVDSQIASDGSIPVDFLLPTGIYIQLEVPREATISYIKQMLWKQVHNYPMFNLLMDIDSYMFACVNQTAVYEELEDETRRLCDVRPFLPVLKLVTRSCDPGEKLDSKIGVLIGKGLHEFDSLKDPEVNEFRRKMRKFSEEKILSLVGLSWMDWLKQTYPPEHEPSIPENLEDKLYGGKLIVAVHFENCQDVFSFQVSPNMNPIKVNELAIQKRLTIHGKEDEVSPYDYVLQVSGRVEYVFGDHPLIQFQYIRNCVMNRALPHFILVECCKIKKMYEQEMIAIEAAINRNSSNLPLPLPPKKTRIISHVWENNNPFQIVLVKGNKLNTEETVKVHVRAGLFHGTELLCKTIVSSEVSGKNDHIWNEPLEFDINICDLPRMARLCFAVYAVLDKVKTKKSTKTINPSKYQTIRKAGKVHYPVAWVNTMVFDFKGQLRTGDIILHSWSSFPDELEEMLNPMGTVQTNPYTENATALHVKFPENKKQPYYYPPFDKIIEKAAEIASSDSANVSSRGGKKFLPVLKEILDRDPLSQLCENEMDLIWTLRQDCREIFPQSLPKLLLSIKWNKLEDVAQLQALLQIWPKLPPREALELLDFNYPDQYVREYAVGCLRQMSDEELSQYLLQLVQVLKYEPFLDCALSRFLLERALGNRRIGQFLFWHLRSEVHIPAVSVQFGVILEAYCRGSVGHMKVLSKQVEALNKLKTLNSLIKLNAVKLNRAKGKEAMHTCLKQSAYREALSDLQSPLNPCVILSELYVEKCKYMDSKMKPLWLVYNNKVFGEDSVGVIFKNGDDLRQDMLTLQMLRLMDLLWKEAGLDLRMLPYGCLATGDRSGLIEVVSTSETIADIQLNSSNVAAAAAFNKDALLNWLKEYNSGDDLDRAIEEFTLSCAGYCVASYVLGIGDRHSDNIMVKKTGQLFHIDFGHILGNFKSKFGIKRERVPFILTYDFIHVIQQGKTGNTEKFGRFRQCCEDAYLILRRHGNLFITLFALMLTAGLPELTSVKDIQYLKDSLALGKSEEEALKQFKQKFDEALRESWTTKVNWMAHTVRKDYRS
T3 sequence (P27986 whole entry partner): as the sequence (P27986 whole entry partner) above
Briefly: Inhibition of phosphatidylinositol 3-kinase beta (PI3K β), pAkt Western blotting in LPA-stimulated PC3 cells. The test is classed as cell-based. The method, then: (§1) The stimulated cells were transferred in a 1.5 mL tube, followed by centrifugation at 3000 rpm for 1 minute. 100 μL of RIPA buffer (radioimmunoprecipitation assay buffer, 50 mM Tris-HCl, 5 mM EDTA, 150 mM NaCl, 1% NP-40, 1 mM PMSF, pH 8.0; ELPIS, Korea) was added thereto, which was stored in a 4° C. refrigerator for 12 hours. Centrifugation was performed at 4° C. at 14,000 rpm for 20 minutes. The supernatant was transferred into a new 1.5 mL tube. Protein was quantified by BCA (bicinchoninic acid) method and samples were prepared. The composition of the sample was as follows: sample buffer (ELPIS, EBA-1052) 5×, protein 10 μg, and 1× sample buffer to make the total volume 20 μL. The sample was heated at 100° C. for 5 minutes. The evaporated water vapor was condensed in a refrigerator. The liquid stained on the wall was fallen down by centrifugation for a few seconds. The sample proceeded to 10% SDS (Sodium Dodecyl Sulfate) acrylamide gel for separation. The separated protein was transferred onto PVDF (poly-vinyl difluoride) membrane, followed by reaction with pAkt (phospho protein kinase B) antibody (Ser473 or Thr308; Cell signaling, 9271s or 13038s) for 12 hours at 4° C. The membrane was washed with TBST (Tris-Buffered Saline with Tween 20, 10 mM Tris-HCl, pH 7.5, 150 mM NaCl, 0.1% Tween-20) three times for 5 minutes each, to which the secondary antibody (rabbit antibody, Santacruz, sc-2004) was added, followed by reaction at room temperature for 2 hours. The membrane was washed with TBST three times for 10 minutes each, to which ECL (enhanced chemiluminescence, Thermo, NCI34095KR) was sprayed. Bands were investigated by using LAS-3000.
The inhibition of phosphatidylinositol 3 kinase beta (PI3K β) by those compounds prepared in Examples 1˜98 was investigated by the following experiment. The inhibition activity of each compound was measured in the following conditions: ATP=10 uM, and sample concentration=100 nM.
Human prostate cancer cells (PC3 cells) cultured in DMEM (Dulbecco's Modified Eagle Medium, Hyclon, SH30243.01) supplemented with 10% fetal bovine serum (Hyclon, USA) were distributed in a 12-well plate at the density of 1,000,000 cells/well. The cells were stabilized in a 37° C. CO2 for 24 hours and then treated with each compound for 1 and half hours. The cells were treated with 10 ng/mL of LPA (lysophosphatidic acid, 10 μg/mL; R&D, 2150-05) to increase the intracellular activity of PI3K beta. 5 minutes later, the medium was discarded and the cells were washed with cold PBS (phosphate buffered saline, Gibco, 14190-250). PBS was then eliminated completely by using a pipette. Western blotting was performed according to the same manner as described in step 2 of Experimental Example 1 to evaluate the intracellular PI3K beta activity.

Test [3] concerns the target T4, PI3 Kinase (p110α/p85α) (h) (Homo sapiens, UniProt P42336).
T4 construct: endogenous in cells; host or cells: MDA-MB-453
Briefly: Inhibition of phosphatidylinositol 3-kinase alpha (PI3K α), pAkt Western blotting in EGF-stimulated MDA-MB-453 cells. The test is classed as cell-based. Here is the method: The inhibition of phosphatidylinositol 3 kinase alpha (PI3K α) by those compounds prepared in Examples 1˜98 was investigated by the following experiment. The inhibition activity of each compound was measured in the following conditions: ATP=10 uM, and sample concentration=100 nM.
Human breast cancer cells (MDA-MB-453) cultured in DMEM (Dulbecco's Modified Eagle Medium, Hyclon, SH30243.01) supplemented with 10% fetal bovine serum (Hyclon, USA) were distributed in a 12-well plate at the density of 1,000,000 cells/well. The cells were stabilized in a 37° C. CO2 for 24 hours and then treated with each compound for 1 and half hours. The cells were treated with 10 ng/mL of EGF (Epidermal Growth Factor, 10 μg/mL; R&D, 2150-C5) to increase the intracellular activity of PI3K alpha. 5 minutes later, the medium was discarded and the cells were washed with cold PBS (phosphate buffered saline, Gibco, 14190-250). PBS was then eliminated completely by using a pipette. Western blotting was performed as described in step 2 to evaluate the intracellular PI3K alpha activity.
as §1

Take `C[C@H](Nc1ncnc2[nH]ccc(=O)c12)c1cc2ccccc2nc1-c1ccccc1` [Example 6, (S)-4-((1-(2-phenylquinoline-3-yl)ethyl)amino)pyrido[2,3-d]pyrimidine-5(8H)-one]: the half-maximal inhibitory concentration (IC50) in test [1] was below 10 nM; at PI3 Kinase (p120γ) (h), 10 to 500 nM; in test [2], above 500 nM; in test [3], above 500 nM.
`O=c1cc[nH]c2ncnc(N3CCC[C@H]3c3cc4cccc(Cl)c4c(=O)n3-c3ccccc3)c12` [Example 14, (S)-4-(2-(8-chloro-1-oxo-2-phenyl-1,2-dihydroisoquinoline-3-yl)pyrrolidine-1-yl)pyrido[2,3-d]pyrimidine-5(8H)-one]: the half-inhibitory concentration (IC50) in test [1] was 10 to 500 nM; at PI3 Kinase (p120γ) (h), 10 to 500 nM; in test [2], above 500 nM; in test [3], above 500 nM.
On to `C[C@H](Nc1ncnc2[nH]ccc(=O)c12)c1cc2ccc(F)cc2nc1-c1cccc(F)c1` [Example 8, (S)-4-((1-(7-fluoro-2-(3-fluorophenyl)quinoline-3-yl)ethyl)amino)pyrido[2,3-d]pyrimidine-5(8H)-one], for which the half-maximal inhibitory concentration (IC50) in test [1] is below 10 nM; against PI3 Kinase (p120γ) (h) it was 10 to 500 nM; in test [2] it was above 500 nM; in test [3] it was above 500 nM.
As for `C[C@H](Nc1ncnc2[nH]ccc(=O)c12)c1nc2cccc(Cl)c2c(=O)n1-c1ccccc1` [Example 1, (S)-4-((1-(5-chloro-4-oxo-3-phenyl-3,4-dihydroquinazoline-2-yl)ethyl)amino)pyrido[2,3-d]pyrimidine-5(8H)-one], the IC50 was below 10 nM in test [1], 10 to 500 nM against PI3 Kinase (p120γ) (h), 10 to 500 nM in test [2] and above 500 nM in test [3].
Take `CC(Nc1ncnc2[nH]ccc(=O)c12)c1nc2ccc(F)cc2cc1-c1ccccn1` (stereo not drawn) [Example 7, 4-((1-(6-fluoro-3-(pyridine-2-yl)quinoline-2-yl)ethyl)amino)pyrido[2,3-d]pyrimidine-5(8H)-one]: the IC50 was below 10 nM in test [1], above 500 nM against PI3 Kinase (p120γ) (h), above 500 nM in test [2] and above 500 nM in test [3].
For `C[C@H](Nc1ncnc2c1C(=O)N(C1CCCC1)CN2)c1cc2cccc(Cl)c2c(=O)n1-c1ccccc1` [Example 63, (S)-5-(1-(8-chloro-1-oxo-2-phenyl-1,2-dihydroisoquinoline-3-yl)ethylamino)-3-cyclopentyl-2,3-dihydropyrimido[4,5-d]pyrimidine-4(1H)-one], the IC50 (in test [1]; against PI3 Kinase (p120γ) (h); in test [2]; in test [3]) was above 500 nM throughout.
Consider `O=c1nc[nH]c2ncnc(N3CCC[C@H]3c3nn4ccc(Cl)c4c(=O)n3-c3ccccc3)c12` [Example 79, (S)-5-(2-(5-chloro-4-oxo-3-phenyl-3,4-dihydropyrrolo[2,1-f][1,2,4]triazine-2-yl)pyrrolidine-1-yl)pyrimido[4,5-d]pyrimidine-4(1H)-one], for which the IC50 (in test [1]; on PI3 Kinase (p120γ) (h); in test [2]; in test [3]) was above 500 nM each time.
As for `C[C@H](Nc1ncnc2[nH]ccc(=O)c12)c1nc2ccc(F)cc2c(-c2ccccn2)c1-c1ccccc1` [Example 27, (S)-4-((1-(6-fluoro-3-phenyl-4-(pyridine-2-yl)quinoline-2-yl)ethyl)amino)pyrido[2,3-d]pyrimidine-5(8H)-one], the IC50 in test [1] is 10 to 500 nM; on PI3 Kinase (p120γ) (h) it was 10 to 500 nM; in test [2], above 500 nM; in test [3], above 500 nM.
Consider `Nc1nc(N2CCC[C@H]2c2cc3cccc(Cl)c3c(=O)n2-c2ccccc2)c2c(=O)cc[nH]c2n1` [Example 16, (S)-2-amino-4-(2-(8-chloro-1-oxo-2-phenyl-1,2-dihydroisoquinoline-3-yl)pyrrolidine-1-yl)pyrido[2,3-d]pyrimidine-5(8H)-one], for which the IC50 in test [1] is 10 to 500 nM; on PI3 Kinase (p120γ) (h) it was 10 to 500 nM; in test [2], above 500 nM; in test [3], above 500 nM.
As for `C[C@H](Nc1nc(N)nc2[nH]ccc(=O)c12)c1cc2cccc(Cl)c2c(=O)n1-c1ccccc1` [Example 15, (S)-2-amino-4-((1-(8-chloro-1-oxo-2-phenyl-1,2-dihydroisoquinoline-3-yl)ethyl)amino)pyrido[2,3-d]pyrimidine-5(8H)-one], the IC50 in test [1] was below 10 nM; on PI3 Kinase (p120γ) (h), 10 to 500 nM; in test [2], 10 to 500 nM; in test [3], 10 to 500 nM.
Turning to `CCN1CNc2ncnc(N[C@@H](C)c3cc4cccc(Cl)c4c(=O)n3-c3ccccc3)c2C1=O` [Example 60, (S)-5-(1-(8-chloro-1-oxo-2-phenyl-1,2-dihydroisoquinoline-3-yl)ethylamino)-3-ethyl-2,3-dihydropyrimido[4,5-d]pyrimidine-4(1H)-one], the IC50 is 10 to 500 nM in test [1], 10 to 500 nM against PI3 Kinase (p120γ) (h), above 500 nM in test [2] and above 500 nM in test [3].
Turning to `CC(Nc1ncnc2[nH]ccc(=O)c12)c1nc2ccc(F)cc2c(-c2ccccn2)c1-c1ccccn1` (stereo not drawn) [Example 26, 4-((1-(6-fluoro-3,4-di(pyridine-2-yl)quinoline-2-yl)ethyl)amino)pyrido[2,3-d]pyrimidine-5(8H)-one], the IC50 in test [1] is 10 to 500 nM; against PI3 Kinase (p120γ) (h) it was above 500 nM; in test [2] it was above 500 nM; in test [3] it was above 500 nM.
Consider `C[C@H](Nc1ncnc2[nH]ccc(=O)c12)c1cc2cccc(Cl)c2c(=O)n1-c1ccccc1` [Example 5, (S)-4-((1-(8-chloro-1-oxo-2-phenyl-1,2-dihydroisoquinoline-3-yl)ethyl)amino)pyrido[2,3-d]pyrimidine-5(8H)-one], for which the half-inhibitory concentration (IC50) in test [1] is below 10 nM; on PI3 Kinase (p120γ) (h), 10 to 500 nM; in test [2] it was 10 to 500 nM; in test [3], above 500 nM.
Turning to `Cc1c[nH]c2ncnc(N[C@@H](C)c3cc4cccc(Cl)c4c(=O)n3-c3ccccc3)c2c1=O` [Example 17, (S)-4-((1-(8-chloro-1-oxo-2-phenyl-1,2-dihydroisoquinoline-3-yl)ethyl)amino)-6-methylpyrido[2,3-d]pyrimidine-5(8H)-one], the IC50 was 10 to 500 nM in test [1], 10 to 500 nM against PI3 Kinase (p120γ) (h), above 500 nM in test [2] and above 500 nM in test [3].
With `CC[C@H](Nc1ncnc2[nH]ccc(=O)c12)c1nc2cccc(F)c2c(=O)n1-c1ccccc1` [Example 12, (S)-4-((1-(5-fluoro-4-oxo-3-phenyl-3,4-dihydroquinazoline-2-yl)propyl)amino)pyrido[2,3-d]pyrimidine-5(8H)-one], the concentration for half-maximal inhibition (IC50) in test [1] was below 10 nM; against PI3 Kinase (p120γ) (h) it was 10 to 500 nM; in test [2], above 500 nM; in test [3] it was above 500 nM.
